The record followed here is patent US8575145B2, “Triazolopyridine compounds as PIM kinase inhibitors” (Array BioPharma Inc., priority 2008, dated 2013).

The structures appear in SMILES notation. Where a name gives a salt, the structure may show the parent alone. Read-outs that look alike come from different tables or passages of the source.

One assay deals with PIM-1 (Homo sapiens (Human), UniProt P11309). Nature of the assay: PIM-1 Enzyme Assay. The format is biochemical. The method in brief: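 Radiometric kinase assay in 20 mM K+MOPS pH 7.4, 10 mM MgCl2, 0.005% Tween-20, 1 mM DTT, 2% DMSO final; 60 min at 22° C, stopped with H3PO4, product captured on P81 filter and counted by scintillation. IC50 from 4-parameter logistic fit of percent of control.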
PIM-1, sequence (P11309 whole entry, species assumed): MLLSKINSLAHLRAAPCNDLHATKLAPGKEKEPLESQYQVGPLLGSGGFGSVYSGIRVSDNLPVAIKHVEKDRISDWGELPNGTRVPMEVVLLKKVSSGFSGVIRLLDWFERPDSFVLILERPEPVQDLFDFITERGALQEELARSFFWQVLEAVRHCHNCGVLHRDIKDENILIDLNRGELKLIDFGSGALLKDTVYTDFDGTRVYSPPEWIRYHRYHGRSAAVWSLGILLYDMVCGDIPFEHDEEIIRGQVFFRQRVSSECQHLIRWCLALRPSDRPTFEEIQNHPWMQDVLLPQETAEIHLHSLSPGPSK

The subject of assay [1] is PC3 (Androgen independent prostate cancer). Description: Cellular Proliferation Assay, cell line A. The assay is classed as cell-based. The following applies: PC3, 72 hours, CelltiterBlue; read-out: Cell Line A antiproliferative IC50. The protocol:
(§1) The assay for determination of the antiproliferative activity of multiple Pim inhibitors in the JAK2-driven cell lines was conducted as follows. Cells were plated out to 96-well plates at an initial density of 10,000 cells/well in 95 pt. Compounds were prepared at […] in DMSO by conducting 3-fold serial dilutions to give a 10-point dosing curve having a high dose of 1000 μM. Aliquots (5 μt) of these dilutions were then transferred to the appropriate wells of the 96-well plates containing cells to yield a final DMSO concentration of 0.5%. The cells were then incubated with compound for 72 hours at 37° C., 5% CO2. CelltiterBlue reagent (Promega, Catalog #: G8080) was then added (20 μL/well) and incubated at 37° C., 5% CO2 for 1-8 hours depending on the cell line being analyzed. The plate was then quantified employing a fluorescence plate reader (Model: Gemini [Molecular Devices]; Settings: 560 nm (Ex)/590 nm (Em) 570 nm (cut-off) [CellTiter Blue Assay].
(§2) The values for each well were then converted to a percent of untreated control (POC). These POC values were then plotted as a function of compound concentration. A 4-parameter curve-fit analysis was performed for each compound dilution and an IC50 value was calculated from this curve.
(§3) Cell lines • A: PC3 (Androgen independent prostate cancer) • B: K562 (Ph+chronic myelogenous leukemia) • C: MV4-11 (Acute myelogenous leukemia) • D: BxPC3 (Pancreatic Cancer) • E: HepG2 (Hepatocellular Carcinoma) • F: BaF3 (Mouse pro-B-cell line) • G: BaF3 TEL-JAK2 (Mouse pro-B-cell transformed with TEL-JAK2 fusion) • H: BaF2 BCR-Ab1 (Mouse pro-B-cell transformed with BCR-Ab1 fusion)
On the technique in general: The colour change of resazurin is a common sign of viable cells or microbes.

The subject of assay [2] is K562 (Ph+chronic myelogenous leukemia). Description: Cellular Proliferation Assay, cell line B. The format is cell-based. The following applies: Homo sapiens; K562, 72 hours, CelltiterBlue; read-out: Cell Line B antiproliferative IC50. How it is done:
as §1, §2, §3

Assay [3] has as its system BaF3 (Mouse pro-B-cell line). Nature of the assay: Cellular Proliferation Assay, cell line F. The format is cell-based. The following applies: BaF3, 72 hours, CelltiterBlue, read-out: Cell Line F antiproliferative IC50. How it is done:
as §1, §2, §3

Assay [4] has as its system BaF3 TEL-JAK2 (Mouse pro-B-cell transformed with TEL-JAK2 fusion). Nature of the assay: Cellular Proliferation Assay, cell line G. The format is cell-based. The settings on record: BaF3 TEL-JAK2, 72 hours, CelltiterBlue, read-out: Cell Line G antiproliferative IC50. The protocol: as §1, §2, §3
The subject of assay [5] is BaF2 BCR-Ab1 (Mouse pro-B-cell transformed with BCR-Ab1 fusion). Nature of the assay: Cellular Proliferation Assay, cell line H. The assay is classed as cell-based. The settings on record: BaF2 BCR-Ab1, 72 hours, CelltiterBlue, read-out: Cell Line H antiproliferative IC50. How it is done: as §1, §2, §3
The target of assay [6] is GST-tagged recombinant full-length human PIM-2 (Homo sapiens (Human), UniProt Q9P1W9). Description: PIM-2 Enzyme Assay. The settings on record: read-out: PIM-2 IC50.
GST-tagged recombinant full-length human PIM-2, sequence (Q9P1W9 whole entry): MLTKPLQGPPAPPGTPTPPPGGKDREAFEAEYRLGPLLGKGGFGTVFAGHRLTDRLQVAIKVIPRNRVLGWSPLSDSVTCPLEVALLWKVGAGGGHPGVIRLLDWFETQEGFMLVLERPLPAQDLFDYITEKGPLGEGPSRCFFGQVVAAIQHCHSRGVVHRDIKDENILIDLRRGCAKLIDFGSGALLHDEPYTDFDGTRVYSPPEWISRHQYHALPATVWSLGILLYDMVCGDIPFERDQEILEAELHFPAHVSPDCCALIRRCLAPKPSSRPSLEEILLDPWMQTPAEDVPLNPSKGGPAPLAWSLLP
Protocol: The amount of radiolabeled product is then measured by liquid scintillation counting. The final buffer conditions were as follows: 20 mM K^+MOPS, pH 7.4, 10 mM MgCl2, 0.005% Tween-20, 1 mM DTT. […] Incubations were carried out for 60 min at 22° C. and quenched with 75 μL of 200 mM H3PO4, filtered through a Whatman P81 plate and washed (1×200 μL and 5×100 μL ) with 200 mM H3PO4. Liquid scintillation cocktail (50 μL ) was then added per well, and the plate was counted for 30 s/well using a TopCount NXT.
One-μL aliquots of these were then transferred to the assay mixtures above to give a final concentration of DMSO of 2%. […] For each plate, percent of control (POC) values were calculated for each well. IC50's were estimated from the POC's using a standard 4-parameter logistic model. The IC50 is defined as the concentration of inhibitor at which the POC equals 50 for the fitted curve.
For another assay, the target named is recombinant rat PIM-3 (Rattus norvegicus (Rat), UniProt O70444). Description: PIM-3 Enzyme Assay. The settings on record: read-out: PIM-3 IC50, 30 μM ATP, 0.5 nM PIM-3.

As to `c1cc(NC2CCNCC2)c2nc(-c3nnc4ccccn34)ccc2c1` [Example 1, 2-([1,2,4]Triazolo[4,3-a]pyridin-3-yl)-N-(piperidin-4-yl)quinolin-8-amine di-trifloroacetate], the 50% inhibitory concentration (IC50) at PIM-1 (35 μM ATP, 0.25 nM PIM-1) was 1.6 nM; in assay [1], under 10 µM; in assay [2], over 10 µM; in assay [3], under 2000 nM; in assay [4], under 2000 nM; in assay [5] it was under 10 µM. The 50% inhibitory concentration (IC50) worked out at 1110 nM in assay [6] (4 μM ATP, […] PIM-2) and 4.4 nM on recombinant rat PIM-3.
For `CC[C@H](CN)C(C)Oc1cccc2ccc(-c3nnc4ccccn34)nc12` (stereo partly drawn) [Example 33, (2R)-3-(2-([1,2,4]triazolo[4,3-a]pyridin-3-yl)quinolin-8-yloxy)-2-ethylbutan-1-amine], the IC50 on PIM-1 (35 μM ATP, 0.25 nM PIM-1) was 5 nM; in assay [6] (4 μM ATP, […] PIM-2), 279 nM; on recombinant rat PIM-3, 19 nM.
In the same order, the values of `CCCC(Oc1cccc2ccc(-c3nnc4ccccn34)nc12)[C@@H](CC)CN` (stereo partly drawn) [Example 34, (2S)-3-(2-([1,2,4]triazolo[4,3-a]pyridin-3-yl)quinolin-8-yloxy)-2-ethylhexan-1-amine] are 13 nM, 1350 nM and 51 nM.
In the case of `CCCC(Oc1cccc2ccc(-c3nnc4ccccn34)nc12)[C@H](CC)CN` (stereo partly drawn) [Example 35, (2R)-3-(2-([1,2,4]triazolo[4,3-a]pyridin-3-yl)quinolin-8-yloxy)-2-ethylhexan-1-amine], the IC50 on PIM-1 (35 μM ATP, 0.25 nM PIM-1) came out at 10 nM; in assay [6] (4 μM ATP, […] PIM-2) it was 1360 nM; at recombinant rat PIM-3, 48 nM.
In the same order, the values of `NC(=O)N1CCC(Oc2cccc3ccc(-c4nnc5ccccn45)nc23)CC1` [Example 40, 4-(2-([1,2,4]triazolo[4,3-a]pyridin-3-yl)quinolin-8-yloxy)piperidine-1-carboxamide] are 12 nM, 1280 nM and 46 nM.
Regarding `FC1CNCCCC1Oc1cccc2ccc(-c3nnc4ccccn34)nc12` (centres unmarked) [Example 51, 2-([1,2,4]triazolo[4,3-a]pyridin-3-yl)-8-(3-fluoroazepan-4-yloxy)quinoline dihydrochloride], the 50% inhibitory concentration (IC50) against PIM-1 (35 μM ATP, 0.25 nM PIM-1) turned out to be 3 nM; in assay [6], 406 nM; at recombinant rat PIM-3, 10 nM.
For `c1cc(OC2CCCNCC2)c2nc(-c3nnc4ccccn34)ccc2c1` (centres unmarked) [Example 52, 2-([1,2,4]triazolo[4,3-a]pyridin-3-yl)-8-(azepan-4-yloxy)quinoline dihydrochloride], the concentration for half-maximal inhibition (IC50) at PIM-1 (35 μM ATP, 0.25 nM PIM-1, dihydrochloride) was 2 nM; in assay [6] (4 μM ATP, […] PIM-2, dihydrochloride), 110 nM; at recombinant rat PIM-3 (dihydrochloride), 4 nM.
Consider `CN(C)C(=O)[C@@H]1C[C@@H](Oc2cccc3ccc(-c4nnc5ccccn45)nc23)CCN1` [Example 54, (2S,4S)-4-(2-([1,2,4]triazolo[4,3-a]pyridin-3-yl)quinolin-8-yloxy)-N,N-dimethylpiperidine-2-carboxamide dihydrochloride], for which the IC50 against PIM-1 (35 μM ATP, 0.25 nM PIM-1) was determined as 178 nM; in assay [6] (4 μM ATP, […] PIM-2), 10000 nM; at recombinant rat PIM-3, 465 nM.
Taken in the same sequence, the figures for `CON(C)C(=O)[C@@H]1C[C@@H](Oc2cccc3ccc(-c4nnc5ccccn45)nc23)CCN1` [Example 55, (2S,4S)-4-(2-([1,2,4]triazolo[4,3-a]pyridin-3-yl)quinolin-8-yloxy)-N-methoxy-N-methylpiperidine-2-carboxamide dihydrochloride] were 70 nM, 10000 nM and 222 nM.
Turning to `OC[C@@H]1C[C@@H](Oc2cccc3ccc(-c4nnc5ccccn45)nc23)CCN1` [Example 56, ((2S,4S)-4-(2-([1,2,4]triazolo[4,3-a]pyridin-3-yl)quinolin-8-yloxy)piperidin-2-yl)methanol dihydrochloride], the half-maximal inhibitory concentration (IC50) against PIM-1 is 9 nM; in assay [6] (4 μM ATP, […] PIM-2), 427 nM; on recombinant rat PIM-3 it was 24 nM.
As for `c1cc(OC[C@@H]2CCCN2)c2nc(-c3nnc4ccccn34)ccc2c1` [Example 61, (S)-2-([1,2,4]triazolo[4,3-a]pyridin-3-yl)-8-(pyrrolidin-2-ylmethoxy)quinoline], the IC50 on PIM-1 (35 μM ATP, 0.25 nM PIM-1) turned out to be 132 nM; in assay [6] (4 μM ATP, […] PIM-2), 10000 nM; on recombinant rat PIM-3, 728 nM.
In the same order, the values of `OCC(O)COc1cccc2ccc(-c3nnc4ccccn34)nc12` (centres unmarked) [Example 62, 3-(2-([1,2,4]triazolo[4,3-a]pyridin-3-yl)quinolin-8-yloxy)propane-1,2-diol] are 34 nM, 1720 nM and 262 nM.
In the case of `CC(C)(CN)COc1cccc2ccc(-c3nnc4ccc(C5CC5)cn34)nc12` [Example 64, 3-(2-(6-cyclopropyl-[1,2,4]triazolo[4,3-a]pyridin-3-yl)quinolin-8-yloxy)-2,2-dimethylpropan-1-amine dihydrochloride], the IC50 on PIM-1 stood at 0.64 nM; in assay [6], 323 nM; at recombinant rat PIM-3, 5 nM.
Regarding `FC1(COc2cccc3ccc(-c4nnc5ccccn45)nc23)CCNCC1` [Example 66, 2-([1,2,4]triazolo[4,3-a]pyridin-3-yl)-8-((4-fluoropiperidin-4-yl)methoxy)quinoline dihydrochloride], the values for the IC50 (on PIM-1; in assay [6]; on recombinant rat PIM-3) were 0.8 nM, 52 nM and 3 nM, respectively.
In the case of `CC1(COc2cccc3ccc(-c4nnc5ccccn45)nc23)CCNCC1` [Example 67, 2-([1,2,4]triazolo[4,3-a]pyridin-3-yl)-8-((4-methylpiperidin-4-yl)methoxy)quinoline dihydrochloride], the IC50 against PIM-1 (35 μM ATP, 0.25 nM PIM-1) was 0.95 nM; in assay [6] (4 μM ATP, […] PIM-2), 69 nM; on recombinant rat PIM-3, 3 nM.
In the same order, the values of `CCC1(COc2cccc3ccc(-c4nnc5ccccn45)nc23)CCNCC1` [Example 68, 2-([1,2,4]triazolo[4,3-a]pyridin-3-yl)-8-((4-ethylpiperidin-4-yl)methoxy)quinoline dihydrochloride] are 1.3 nM, 126 nM and 10 nM.
In the same order, the values of `OC1(COc2cccc3ccc(-c4nnc5ccccn45)nc23)CCN(Cc2ccccc2)CC1` [Example 71, 4-((2-([1,2,4]triazolo[4,3-a]pyridin-3-yl)quinolin-8-yloxy)methyl)-1-benzylpiperidin-4-ol] are 16 nM, 10000 nM and 112 nM.
For `COC1(COc2cccc3ccc(-c4nnc5ccccn45)nc23)CCNCC1` [Example 73, 2-([1,2,4]triazolo[4,3-a]pyridin-3-yl)-8-((4-methoxypiperidin-4-yl)methoxy)quinoline bis(trifluoroacetate)], the concentration for half-maximal inhibition (IC50) was 0.96 nM against PIM-1; 79 nM in assay [6] (4 μM ATP, […] PIM-2); 5 nM on recombinant rat PIM-3.
For `CC1(COc2cccc3ccc(-c4nnc5ccccn45)nc23)CCN(CCO)CC1` [Example 86, dihydrochloride], the IC50 was 3 nM at PIM-1 (35 μM ATP, 0.25 nM PIM-1); 142 nM in assay [6]; 10 nM at recombinant rat PIM-3.
`CC(C)(COc1cc(F)cc2ccc(-c3nnc4ccccn34)nc12)[C@@H](O)CO` [Example 112, (R)-4-(2-([1,2,4]triazolo[4,3-a]pyridin-3-yl)-6-fluoroquinolin-8-yloxy)-3,3-dimethylbutane-1,2-diol dihydrochloride]: the concentration for half-maximal inhibition (IC50) on PIM-1 (35 μM ATP, 0.25 nM PIM-1) came to 3.3 nM; in assay [6] (4 μM ATP, […] PIM-2) it was 300 nM; at recombinant rat PIM-3, 10.1 nM.

In general, IC50 refers to the concentration needed to halve the response being measured.
